Measured values from patent US10662359B2, “Heat transfer fluids and methods of using same” (3M INNOVATIVE PROPERTIES COMPANY, priority 2017, dated 2020).

System: rats
Assay: 4 hour acute inhalation toxicity in rats
Assay type: in vivo
Details: rats dosed at 10,000 or 619 ppm vol/vol in air for 4 hours, 14 day post-dose monitoring; LC-50 estimated, interpreted as highest exposure level tested
Protocol: The 4 hour acute inhalation toxicity of Example 3 and CE2 in rats was determined by dosing animals at 10,000 or 619 ppm vol/vol in air (per Table 4) for 4 hours followed by 14 day post-dose monitoring. Based on the animal test results and the vapor concentration of the test compound, the LC-50 values were estimated. The NOEL (No Effect Level) value of CE3 was obtained from du Pont de Nemours trade literature. The 4 hr inhalation LC-50 value for CE4 was obtained from Solvay MSDS.

FC(=C(C(F)(F)F)C(F)(F)C(F)(F)C(F)(F)F)C(F)(C(F)(F)F)C(F)(F)F [Example 3, 1,1,1,2,3,5,5,6,6,7,7,7-dodecafluoro-2,4-bis(trifluoromethyl)hept-3-ene]
LC-50 (4 hr Inhalation in Rats): >10,000 ppmv
